Test results reported in patent EP1149106B1, “4,5-AZOLO-OXINDOLES” (F. HOFFMANN-LA ROCHE AG, priority 1998, dated 2000).

These compounds were tested against T1, Cyclin E/CDK2 (Homo sapiens, UniProt P24941) (assay: CDK2 FlashPlate Assay (Rb phosphorylation, 33P-ATP)). Conditions: Concentration 0.5 µM.
T1 construct: made in house; host or cells: insect cells
Format: biochemical
Protocol: To determine inhibition of CDK2 activity, purified recombinant retinoblastoma (Rb) protein was coated on 96 well FlashPlates (New England Nuclear, Boston, MA). Rb is a natural substrate for phosphorylation by CDK2 (Herwig and Strauss Eurr. J. Biochem., Vol. 246 (1997) pp. 581-601 and references therein). Recombinant active human Cyclin E/CDK2 complexes were partially purified from extracts of insect cells. The active Cyclin E/CDK2 was added to the Rb-coated FlashPlates along with ^33P-ATP and dilutions of test compounds. Plates were incubated for 25 minutes at room temperature with shaking, then washed and counted in the Topcount scintillation counter (Packard Instrument Co., Downers Grove, IL). Dilutions of test compounds were tested in duplicate in each assay. The percent inhibition of Rb phosphorylation, which is a measure of the inhibition of CDK2 activity, was determined according to the following formula: [formula] where "test compound" refers to the average counts per minute of the test duplicates, "nonspecific" refers to the average counts per minute when no Cyclin E/CDK2 was added, and "total" refers to the average counts per minute when no compound was added.

Row | Compound | inhibition at 0.5 µM [%]
1 | COc1cc[nH]c1/C=C1\C(=O)Nc2ccc3[nH]c(NCc4cccc5ccccc45)nc3c21 [WW, (Z)-8-[(3-Methoxy-1H-pyrrol-2-yl)methylene]-2-[N-(1-naphthalenyl)methylamino]-3,6,7,8-tetrahydro-pyrrolo[3,2-e]-benzimidazol-7-one] | < 50
2 | COc1ccc(Nc2nc3c4c(ccc3[nH]2)NC(=O)/C4=C\c2[nH]ccc2OC)cc1 [Z, (Z)-2-[N-(4-Methoxyphenyl)amino]-8-[(3-methoxy-1H-pyrrol-2-yl)methylene]-3,6,7,8-tetrahydro-pyrrolo[3,2-e]benzimidazol-7-one] | < 50
3 | COC(=O)c1ccc(Nc2nc3c4c(ccc3[nH]2)NC(=O)/C4=C\c2[nH]ccc2OC)cc1 [EE, (Z)-4-[[8-[(3-Methoxy-1H-pyrrol-2-yl)methylene]-7-oxo-3,6,7,8-tetrahydro-imidazo[4,5-e]indol-2-yl]amino]-benzoic acid methyl ester] | < 50
4 | COc1ccc(CCNc2nc3c4c(ccc3[nH]2)NC(=O)/C4=C\c2[nH]ccc2OC)cc1OC [GG, (Z)-2-[N-[2-(3,4-Dimethoxyphenyl)ethyl]amino]-8-[(3-methoxy-1H-pyrrol-2-yl)methylene]-3,6,7,8-tetrahydro-pyrrolo[3,2-e]-benzimidazol-7-one] | < 50
5 | CCOC(=O)c1ccc(Nc2nc3c4c(ccc3[nH]2)NC(=O)/C4=C\c2[nH]ccc2OC)cc1 [CC, (Z)-4-[[8-[(3-Methoxy-1H-pyrrol-2-yl)methylene]-7-oxo-3,6,7,8-tetrahydro-imidazo[4,5-e]indol-2-yl]amino]-benzoic acid ethyl ester] | < 50
6 | COc1cc[nH]c1/C=C1\C(=O)Nc2ccc3[nH]c(NCCCc4ccccc4)nc3c21 [XX, (Z)-8-[(3-Methoxy-1H-pyrrol-2-yl)methylene]-2-[N-(3-phenylpropyl)amino]-3,6,7,8-tetrahydro-pyrrolo[3,2-e]benzimidazol-7-one] | < 50
7 | COc1cc[nH]c1/C=C1\C(=O)Nc2ccc3[nH]c(NCc4ccc5c(c4)OCO5)nc3c21 [VV, (Z)-2-[N-(1,3-Benzodioxol-5-yl)methylamino]-8-[(3-methoxy-1H-pyrrol-2-yl)methylene]-3,6,7,8-tetrahydro-pyrrolo[3,2-e]-benzimidazol-7-one] | < 50
8 | COc1cc[nH]c1/C=C1\C(=O)Nc2ccc3[nH]c(Nc4ccc5c(c4)CCC5)nc3c21 [YY, (Z)-2-[N-(2,3-Dihydro-1H-inden-5-yl)amino]-8-[(3-methoxy-1H-pyrrol-2-yl)methylene]-3,6,7,8-tetrahydro-pyrrolo[3,2-e]-benzimidazol-7-one] | < 50
9 | COc1ccccc1Nc1nc2c3c(ccc2[nH]1)NC(=O)/C3=C\c1[nH]ccc1OC [II, (Z)-2-[N-(2-Methoxyphenyl)amino]-8-[(3-methoxy-1H-pyrrol-2-yl)methylene]-3,6,7,8-tetrahydro-pyrrolo[3,2-e]benzimidazol-7-one] | < 50
10 | COc1cc[nH]c1/C=C1\C(=O)Nc2ccc3[nH]c(Nc4cccc(C(C)=O)c4)nc3c21 [BB, (Z)-2-[N-(3-Acetylphenyl)amino]-8-[(3-methoxy-1H-pyrrol-2-yl)methylene]-3,6,7,8-tetrahydro-pyrrolo[3,2-e]benzimidazol-7-one] | < 50
11 | COc1cc[nH]c1/C=C1\C(=O)Nc2ccc3[nH]c(NCCCCc4ccccc4)nc3c21 [JJ, (Z)-8-[(3-Methoxy-1H-pyrrol-2-yl)methylene]-2-[N-(4-phenylbutyl)amino]-3,6,7,8-tetrahydro-pyrrolo[3,2-e]benzimidazol-7-one] | < 50
12 | COc1ccc(Nc2nc3c4c(ccc3[nH]2)NC(=O)/C4=C\c2[nH]ccc2OC)cc1OC [Y, (Z)-2-[N-(3,4-Dimethoxyphenyl)amino]-8-[(3-methoxy-1H-pyrrol-2-yl)methylene]-3,6,7,8-tetrahydro-pyrrolo[3,2-e]benzimidazol-7-one] | < 50

Same assay, conditions: recombinant human Cyclin E/CDK2, Rb substrate, 25 minutes at room temperature

Row | Compound | IC50 [µM]
13 | Cc1nc[nH]c1/C=C1\C(=O)Nc2ccc([N+](=O)[O-])c(N)c21 [QQ, (Z)-4-Amino-1,3-dihydro-3-[(4-methyl-1H-imidazol-5-yl)methylene]-5-nitro-2H-indol-2-one] | < 3.5
14 | COc1ccc(Cc2nc3c4c(ccc3[nH]2)NC(=O)/C4=C\c2[nH]ccc2OC)cc1 [T, (Z)-2-[(4-Methoxyphenyl)methyl]-8-[(3-methoxy-1H-pyrrol-2-yl)methylene]-3,6,7,8-tetrahydro-pyrrolo[3,2-e]benzimidazol-7-one] | < 3.5
15 | Cc1nc[nH]c1/C=C1\C(=O)Nc2ccc([N+](=O)[O-])c(N=[N+]=[N-])c21 [PP, (Z)-4-Azido-1,3-dihydro-3-[(4-methyl-1H-imidazol-5-yl)methylene]-5-nitro-2H-indol-2-one] | < 3.5
16 | Cc1nc[nH]c1/C=C1\C(=O)Nc2ccc(N)c(N)c21 [RR, (Z)-4,5-Diamino-1,3-dihydro-3-[(4-methyl-1H-imidazol-5-yl)methylene]-2H-indol-2-one] | < 3.5
17 | COc1cc[nH]c1/C=C1\C(=O)Nc2ccc3[nH]c(Nc4ccc(N(C)C)cc4)nc3c21 [DD, (Z)-2-[N-(4-Dimethylaminophenyl)amino]-8-[(3-methoxy-1H-pyrrol-2-yl)methylene]-3,6,7,8-tetrahydro-pyrrolo[3,2-e]-benzimidazol-7-one] | < 3.5
18 | COc1cc[nH]c1/C=C1\C(=O)Nc2ccc3[nH]c(CCCc4ccccc4)nc3c21 [W, (Z)-2-[3-(Phenyl)propyl]-8-[(3-methoxy-1H-pyrrol-2-yl)methylene]-3,6,7,8-tetrahydro-pyrrolo[3,2-e]benzimidazol-7-one] | < 3.5
19 | COc1cc[nH]c1/C=C1\C(=O)Nc2ccc3[nH]c(NC(C)c4ccccc4)nc3c21 (racemic) [HH, rac-(Z)-8-[(3-Methoxy-1H-pyrrol-2-yl)methylene]-2-[N-(1-phenylethyl)amino]-3,6,7,8-tetrahydro-pyrrolo[3,2-e]benzimidazol-7-one] | < 3.5
20 | COCCCNc1nc2c3c(ccc2[nH]1)NC(=O)/C3=C\c1[nH]ccc1OC [X, (Z)-2-[N-(3-Methoxypropyl)amino]-8-[(3-methoxy-1H-pyrrol-2-yl)methylene]-3,6,7,8-tetrahydro-pyrrolo[3,2-e]benzimidazol-7-one] | < 3.5
21 | COc1cc[nH]c1/C=C1\C(=O)Nc2ccc3[nH]c(-c4ccccc4O)nc3c21 [S, (Z)-2-(2-Hydroxyphenyl)-8-[(3-methoxy-1H-pyrrol-2-yl)methylene]-3,6,7,8-tetrahydro-pyrrolo[3;2-e]benzimidazol-7-one] | < 3.5
22 | COc1cc[nH]c1/C=C1\C(=O)Nc2ccc3[nH]c(CCc4ccc(O)cc4)nc3c21 [V, (Z)-2-[2-(4-Hydroxyphenyl)ethyl]-8-[(3-methoxy-1H-pyrrol-2-yl)methylene]-3,6,7,8-tetrahydro-pyrrolo[3,2-e]benzimidazol-7-one] | < 3.5
23 | COc1cc[nH]c1/C=C1\C(=O)Nc2ccc3[nH]c(NCC4CCCO4)nc3c21 (centres unmarked) [KK, (Z)-8-[(3-Methoxy-1H-pyrrol-2-yl)methylene]-2-[N-[(2-tetrahydrofuranyl)methyl]-amino]-3,6,7,8-tetrahydro-pyrrolo[3,2-e] benzimidazol-7-one] | < 3.5
24 | COc1cc[nH]c1/C=C1\C(=O)Nc2ccc3[nH]c(-c4ccccc4)nc3c21 [Q, (Z)-8-[(3-Methoxy-1H-pyrrol-2-yl)methylene]-2-phenyl-3,6,7,8-tatrahydro-pyrrolo[3,2-e]benzimidazol-7-one] | < 3.5
25 | COc1cc[nH]c1/C=C1\C(=O)Nc2ccc3nc[nH]c3c21 [TT, (Z)-8-[(3-Methoxy-1H-pyrrol-2-yl)methylene]-3,6,7,8-tetrahydro-pyrrolo-[3,2-e]benzimidazol-7-one] | < 3.5
26 | Cc1nc[nH]c1/C=C1\C(=O)Nc2ccc([N+](=O)[O-])c(F)c21 [OO, (Z)-1,3-Dihydro-4-fluoro-3-[(4-methyl-1H-imidazol-5-yl)methylene]-5-nitro-2H-indol-2-one] | < 3.5
27 | O=C1Nc2ccc3[nH]c(-c4ccccc4)nc3c2/C1=C/c1ccc[nH]1 [O, (Z)-2-Phenyl-8-[(1H-pyrrol-2-yl)methylene]-3,6,7,8-tetrahydro-pyrrolo[3,2-e]benzimidazol-7-one] | < 3.5
28 | COc1cc[nH]c1/C=C1\C(=O)Nc2ccc3[nH]c(C(O)c4ccccc4)nc3c21 (racemic) [U, rac-(Z)-2-(1-Hydroxy-1-phenyl-methyl)-8-[(3-methoxy-1H-pyrrol-2-yl)methylene]-3,6,7,8-tetrahydro-pyrrolo[3,2-e]benzimidazol-7-one] | < 3.5
29 | Cc1nc[nH]c1/C=C1\C(=O)Nc2ccc3[nH]cnc3c21 [SS] | < 3.5
